Results taken from patent US12187759B2, “TLR7 agonists” (Primmune Therapeutics, Inc., priority 2019, dated 2025).
Read-outs that look alike come from different tables or passages of the source.

Assays:
[1] = target: T1, human TLR7 (Homo sapiens, UniProt Q9NYK1); assay: TLR7 reporter cell assay (HEK293 cells stably expressing human TLR7 with NF-κB-driven SEAP reporter); format: cell-based; details: for EC50: fit of SEAP dose response, ymax from 28.5 μM resiquimod
T1 construct: host or cells: HEK293
T1 sequence (Q9NYK1 27-1049): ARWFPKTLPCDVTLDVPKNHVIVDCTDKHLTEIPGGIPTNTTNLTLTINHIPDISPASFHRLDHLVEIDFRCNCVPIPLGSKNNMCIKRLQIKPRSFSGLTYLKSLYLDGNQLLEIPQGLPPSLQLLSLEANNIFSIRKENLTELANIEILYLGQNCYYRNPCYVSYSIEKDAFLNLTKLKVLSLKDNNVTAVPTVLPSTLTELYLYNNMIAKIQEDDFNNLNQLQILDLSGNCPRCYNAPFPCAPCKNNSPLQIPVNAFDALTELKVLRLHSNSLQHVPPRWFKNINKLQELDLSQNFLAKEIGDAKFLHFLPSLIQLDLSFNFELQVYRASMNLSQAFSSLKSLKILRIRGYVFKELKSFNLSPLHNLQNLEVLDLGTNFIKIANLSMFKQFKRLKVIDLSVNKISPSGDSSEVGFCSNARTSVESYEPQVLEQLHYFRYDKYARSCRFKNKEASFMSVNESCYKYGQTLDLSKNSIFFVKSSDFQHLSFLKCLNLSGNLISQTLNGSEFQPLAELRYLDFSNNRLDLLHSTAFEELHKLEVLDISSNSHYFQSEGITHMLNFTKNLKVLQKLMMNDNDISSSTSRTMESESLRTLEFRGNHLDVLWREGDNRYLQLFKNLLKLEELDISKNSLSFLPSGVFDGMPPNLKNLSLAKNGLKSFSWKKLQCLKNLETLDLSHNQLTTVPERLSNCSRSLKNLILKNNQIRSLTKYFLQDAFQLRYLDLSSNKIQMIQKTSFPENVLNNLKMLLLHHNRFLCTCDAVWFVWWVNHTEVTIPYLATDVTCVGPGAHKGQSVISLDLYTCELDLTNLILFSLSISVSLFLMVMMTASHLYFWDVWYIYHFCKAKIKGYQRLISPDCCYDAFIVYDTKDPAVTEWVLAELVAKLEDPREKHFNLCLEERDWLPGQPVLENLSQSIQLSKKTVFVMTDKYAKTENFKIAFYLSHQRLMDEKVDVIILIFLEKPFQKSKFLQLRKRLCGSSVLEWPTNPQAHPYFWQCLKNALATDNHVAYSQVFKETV
Excerpt: The engagement of TLRs by cognate ligands triggers downstream signaling cascades, leading to the activation of NF-κB and other transcription factors which initiate various immunomodulatory effects. The human embryonic kidney cell line, HEK293, is essentially non-responsive to TLR agonists, but ectopic expression of TLRs in these cells allows cognate agonists to activate endogenous NF-κB. Accordingly, the HEK293-TLR-NF-κB inducible reporter system is used to assay TLR agonists.
HEK293 cell lines stably expressing human TLR7 or TLR8 together with an NF-κB-driven-secreted alkaline phosphatase (SEAP) reporter were invented at InvivoGen (San Diego, California, USA) and used to assess compounds of the present invention for TLR7 and TLR8 agonist activities. Cells were seeded at 2-5×10^4 cells/well in 96 well plates (200 μl/well) and treated with various concentrations of compound (10 μl) for 15-24 hours. SEAP activity was determined by measuring OD at 650 nm; the media used to culture the cell lines contains the reagents required for SEAP detection. The EC50 values in Table 1 are calculated from fitting the dose response of measured SEAP activity for each compound to the following equation: Y=ymax*c^nh/(EC50^nh+c^nh)+blank where Y is the experimentally measured OD650 at concentration c of test article, blank is the observed OD650 in the absence of TLR7 agonist, ymax is the difference between the measured OD650 in the presence of 28.5 μM resiquimod and the blank and values of EC50 and nh are determined by nonlinear least squares analysis. Resiquimod is a known TLR7 and TLR8 agonist.
Compound A is 5-amino-3-((2R,3R,5S)-3-hydroxy-5-((S)-1-hydroxypropyl)tetrahydrofuran-2-yl)thiazolo[4,5-d]pyrimidine-2,7(3H,6H)-dione)

[2] = test system: hPBMCs (Human Peripheral Blood Mononuclear Cells); assay: Induction of interferon-α in hPBMCs in vitro; format: cell-based; details: for Emax / minimal effective concentration: Homo sapiens, PBMC; for Emax: 24 h, peak IFNα2a as percentage of peak response of standard 2-Amino-7-(cyclopropylmethyl)-9-B-D-xylofuranosyl-7,9-dihydro-1H-purine-6,8-dione, averaged across donors, read-out: IFNrmax, Relative Maximal IFNα2a Production (%); for minimal effective concentration: minimal effective concentration for interferon-α production (generally at least 80 pg/ml above baseline), geometric mean across at least three donors, 24 hours, read-out: Weighted MEC
Method: Treatment of hPBMCs with a TLR7 agonist typically induces some production of interferon-α as well as lesser amounts of a variety of other cytokines and chemokines. A typical experiment uses hPBMCs isolated from a healthy donor and placed in replicate cell culture wells; typically 1.0-7.5×10^6 cells are placed in each well. A test compound is added and the cells are cultured for 24 hours at 37° C. in a humidified atmosphere containing 5% CO2 post-addition; untreated controls are included. Secreted interferon-α production is measured using an a multisubtype interferon-α ELISA kit like those from PBL Assay Sciences or specifically as IFNα2a as part of a panel of cytokines and chemokines using luminex methodologies.
The minimal effective concentration (MEC) is the minimum concentration in a dose response curve where a significant increase in interferon-α production (generally at least 80 pg/ml) is observed above baseline. MEC values for each compound are determined for at least three donors. The weighted MEC for each compound is the geometric mean of all individual MECs across all donors. Concentrations tested typically consist of a two-fold dilution series starting at 100 μM. In the calculation of weighted MEC, any individual MEC value greater the highest concentration tested is arbitrarily set to two times the highest concentration tested unless all MECs for a compound exceed this value. The maximal amount of IFNα2a for each donor is determined from dose dependence for each compound.
In order to normalize for variation in each hPBMC preparation, these values are first transformed by expressing as a percentage of peak response measured with a standard (2-Amino-7-(cyclopropylmethyl)-9-B-D-xylofuranosyl-7,9-dihydro-1H-purine-6,8-dione) and then averaging the results across all donors, this average referred to as IFNrmax.
IFNmax is the maximum amount of IFN observed at any concentration across the evaluated concentration range. MEC and IFNmax values for three select compound are shown for three donors (Table 3). The range of tested concentrations were 0.625-5 μM for Imiquimod, 3.125-100 μM for both Compound A and Compound 1, 12.5-100 μM for Compound 2.

[3] = HEK293, 500 μM compound, SEAP activity (OD 650 nm) relative to 28.5 μM resiquimod, 15-24 hours, read-out: Response at 500 μM Compound as a Percent of Resiquimod Response

With `C#CCn1c(=O)n([C@@H]2O[C@H](C(C)(C)O)[C@H](F)[C@H]2O)c2nc(N)[nH]c(=O)c21` [Compound 19, 2-Amino-9-((2R,3S,4R,5R)-4-fluoro-3-hydroxy-5-(2-hydroxypropan-2-yl)tetrahydrofuran-2-yl)-7-(prop-2-yn-1-yl)-7,9-dihydro-1H-purine-6,8-dione] the Emax at 500 µM [1, 3] was under 5%, the Emax [2] was at most 10% and the minimal effective concentration [2] was over 50 µM.

Work on `C#CCn1c(=O)n([C@@H]2O[C@H]([C@@H](O)CF)C[C@H]2O)c2nc(N)[nH]c(=O)c21` [Compound 24, 2-Amino-9-((2R,3R,5S)-5-((R)-2-fluoro-1-hydroxyethyl)-3-hydroxytetrahydrofuran-2-yl)-7-(prop-2-yn-1-yl)-7,9-dihydro-1H-purine-6,8-dione] yielded an Emax at 500 µM [1, 3] of 52%, an EC50 ([1]; 15-24 hours) of 327 µM and an Emax [2] of 205%. The minimal effective concentration [2] was 12.5 µM.

For `C=C=Cn1c(=O)n([C@@H]2O[C@H]([C@@H](O)CC)C[C@H]2O)c2nc(N)[nH]c(=O)c21` [Compound 8, 2-Amino-9-((2R,3R,5S)-3-hydroxy-5-((S)-1-hydroxypropyl)tetrahydrofuran-2-yl)-7-(propa-1,2-dien-1-yl)-7,9-dihydro-1H-purine-6,8-dione], the Emax at 500 µM [1, 3] was under 5%, the Emax [2] was 215% and the minimal effective concentration [2] was 5.4 µM.

`CCCn1c(=O)n([C@@H]2O[C@H]([C@@H](O)C(F)(F)F)C[C@H]2O)c2nc(N)[nH]c(=O)c21` [Compound 25, 2-Amino-9-((2R,3R,5S)-3-hydroxy-5-((R)-2,2,2-trifluoro-1-hydroxyethyl)tetrahydrofuran-2-yl)-7-propyl-7,9-dihydro-1H-purine-6,8-dione] showed an Emax at 500 µM [1, 3] of 74%, an EC50 ([1]; 15-24 hours) of 324 µM and an Emax [2] of 80%. It also gave a minimal effective concentration [2] of 19.8 µM.

In the case of `C#CCn1c(=O)n([C@@H]2O[C@H]([C@H](O)CC)C[C@H]2O)c2nc(N)[nH]c(=O)c21` [Compound 2, 2-amino-9-((2R,3R,5S)-3-hydroxy-5-((R)-1-hydroxypropyl)tetrahydrofuran-2-yl)-7-(prop-2-yn-1-yl)-7,9-dihydro-1H-purine-6,8-dione], the Emax at 500 µM ([1]; HEK293, read-out: Response at 500 μM Compound as a Percent of Resiquimod Response) is reported as under 5%, the “Donor 1 MEC” value ([2]; Donor 1, interferon-α production) is reported as 50 µM and the “Donor 1 IFNmax” value ([2]; Donor 1, maximum IFN at any concentration of the evaluated range) is reported as 4523 pg/mL. For the same compound, the “Donor 2 MEC” value ([2]; Donor 2, interferon-α production) was over 100 µM, the “Donor 2 IFNmax” value ([2]; Donor 2, maximum IFN at any concentration of the evaluated range) was 9 pg/mL and the “Donor 3 MEC” value ([2]; Donor 3, interferon-α production) was 100 µM. For the same compound, the “Donor 3 IFNmax” value ([2]; Donor 3, maximum IFN at any concentration of the evaluated range) was 3110 pg/mL.

`Nc1nc2c(c(=O)[nH]1)n(CCC(F)(F)F)c(=O)n2[C@@H]1O[C@H]([C@@H](O)C(F)(F)F)C[C@H]1O` [Compound 28, 2-Amino-9-((2R,3R,5S)-3-hydroxy-5-((R)-2,2,2-trifluoro-1-hydroxyethyl)tetrahydrofuran-2-yl)-7-(3,3,3-trifluoropropyl)-7,9-dihydro-1H-purine-6,8-dione] was tested, and the Emax at 500 µM [1, 3] was 47%, the EC50 ([1]; 15-24 hours) was 519 µM and the Emax [2] was 105%. For the same compound, the minimal effective concentration [2] was 9.9 µM.

Compound `CCCCn1c(=O)n([C@@H]2O[C@H]([C@@H](O)CC)[C@H](F)[C@H]2O)c2nc(N)[nH]c(=O)c21` [Compound 30, 2-Amino-7-butyl-9-((2R,3S,4R,5R)-4-fluoro-3-hydroxy-5-((S)-1-hydroxypropyl)tetrahydrofuran-2-yl)-7,9-dihydro-1H-purine-6,8-dione] has an Emax at 500 µM [1, 3] of 87%, an EC50 ([1]; 15-24 hours) of 94 µM and an Emax [2] of 347%. The minimal effective concentration [2] was 1.6 µM.

Work on `CC[C@H](O)[C@H]1O[C@@H](n2c(=O)n(CCSC)c3c(=O)[nH]c(N)nc32)[C@H](O)[C@H]1F` [Compound 46, 2-Amino-9-((2R,3S,4R,5R)-4-fluoro-3-hydroxy-5-((S)-1-hydroxypropyl)tetrahydrofuran-2-yl)-7-(2-(methylthio)ethyl)-7,9-dihydro-1H-purine-6,8-dione] yielded an Emax at 500 µM [1, 3] of 30%, an EC50 ([1]; 15-24 hours) of over 500 µM and an Emax [2] of 317%. The minimal effective concentration [2] was 3.1 µM.

In the case of `CC[C@H](O)[C@@H]1C[C@@H](O)[C@H](n2c(=O)n(CC(F)(F)F)c3c(=O)[nH]c(N)nc32)O1` [Compound 43, 2-Amino-9-((2R,3R,5S)-3-hydroxy-5-((S)-1-hydroxypropyl)tetrahydrofuran-2-yl)-7-(2,2,2-trifluoroethyl)-7,9-dihydro-1H-purine-6,8-dione], the Emax at 500 µM [1, 3] is reported as 97%, the EC50 ([1]; 15-24 hours) is reported as 55 µM and the Emax [2] is reported as 158%. It also gave a minimal effective concentration [2] of 2.5 µM.

Compound `CC[C@H](O)[C@@H]1C[C@@H](O)[C@H](n2c(=O)n(CCSC)c3c(=O)[nH]c(N)nc32)O1` [Compound 22, 2-Amino-9-((2R,3R,5S)-3-hydroxy-5-((S)-1-hydroxypropyl)tetrahydrofuran-2-yl)-7-(2-(methylthio)ethyl)-7,9-dihydro-1H-purine-6,8-dione] has an Emax at 500 µM [1, 3] of 69%, an EC50 ([1]; 15-24 hours) of 224 µM and an Emax [2] of 307%. For the same compound, the minimal effective concentration [2] was 6.3 µM.

`CC[C@H](O)[C@H]1O[C@@H](n2c(=O)n(CC(F)(F)F)c3c(=O)[nH]c(N)nc32)[C@H](O)[C@H]1F` [Compound 44, 2-Amino-9-((2R,3S,4R,5R)-4-fluoro-3-hydroxy-5-((S)-1-hydroxypropyl)tetrahydrofuran-2-yl)-7-(2,2,2-trifluoroethyl)-7,9-dihydro-1H-purine-6,8-dione] gave an Emax at 500 µM [1, 3] of 101%, an EC50 ([1]; 15-24 hours) of 86 µM and an Emax [2] of 250%. The minimal effective concentration [2] was 2 µM.
